Earlier results on 2 substances are cited in patent US10663473B2, “Method of identifying a status of a mucosal intestinal epithelial barrier to improve treatment of inflammatory bowel disease” (Maximus Diagnostic Technologies LLC, priority 2016, dated 2020).

The test system of the data set is IBD patients. Particulars: cited from earlier work.

Regarding “golimumab: monoclonal antibody to TNF-alpha sold under the trademark Simponi”, under “all UC patients”, the “short-term and long-term clinical response rate” value is listed as 50%.
As to “vedolizumab: monoclonal antibody that specifically binds to integrin α4β7, sold under the name ENTYVIO by Takeda Pharmaceuticals”, for the setting “particularly for Crohn's disease, compared with anti-TNF agents”, the clinical response rate result is reported as “low”.
